Laboratory results: the NIST ThermoML archive (doi:10.1021/je800463k)

Assay: mn = molality of the nth substance listed, in mol/kg
Conditions: 101 kPa, Liquid; for mass density: Pycnometric method; for electrical conductivity: Frequency=0.001 MHz, Alternating current cell with electrodes; for speed of sound: Frequency=2 MHz

O=[N+]([O-])[O-].O=[N+]([O-])[O-].[Mg+2] [magnesium nitrate] + CO
Conditions | electrical conductivity [S/m] | mass density [kg/m3] | speed of sound [m/s] | viscosity [mPa·s]
301.25 K, m1 = 0.4024 | – | 827.04 | – | –
301.3 K, m1 = 0.0082 | – | 785.69 | – | –
301.4 K, m1 = 0.2776 | – | 814.59 | – | –
301.4 K, m1 = 1.71 | – | 952.09 | – | –
302.05 K, m1 = 0.0545 | – | 790.26 | – | –
302.2 K, m1 = 0.4555 | – | 830.9 | – | –
302.25 K, m1 = 0.782 | – | 868.46 | – | –
302.45 K, m1 = 0.1047 | – | 796.51 | – | –
302.55 K, m1 = 1.004 | – | 883.47 | – | –
302.7 K, m1 = 0.6276 | – | 848.25 | – | –
302.7 K, m1 = 1.259 | – | 910.86 | – | –
302.85 K, m1 = 1.875 | – | 961.69 | – | –
303.15 K, m1 = 0.0082 | 0.1462 | 783.99 | 1091.9 | 0.5215
303.15 K, m1 = 0.0545 | 0.4108 | – | 1098.1 | 0.5545
303.15 K, m1 = 0.0667 | 0.4481 | – | 1096.9 | 0.5716
303.15 K, m1 = 0.1047 | 0.5889 | – | 1102.5 | 0.5909
303.15 K, m1 = 0.2776 | 1.123 | – | 1121.5 | 0.6836
303.15 K, m1 = 0.4024 | 1.41 | – | 1132.5 | 0.7943
303.15 K, m1 = 0.4555 | 1.489 | – | 1139.1 | 0.8264
303.15 K, m1 = 0.6276 | 1.775 | – | 1155.5 | 1.05
303.15 K, m1 = 0.782 | 1.979 | – | 1172.9 | 1.177
303.15 K, m1 = 0.881 | 2.037 | – | 1179.3 | 1.184
303.15 K, m1 = 0.9116 | 2.054 | – | 1182.3 | 1.245
303.15 K, m1 = 1.004 | 2.136 | – | 1196.9 | 1.354
303.15 K, m1 = 1.259 | 2.213 | – | 1219.1 | 1.875
303.15 K, m1 = 1.492 | 2.223 | – | 1243 | 2.267
303.15 K, m1 = 1.71 | 2.246 | – | 1263.7 | 2.73
303.15 K, m1 = 1.875 | 2.217 | – | 1272.7 | 3.138
303.25 K, m1 = 0.4024 | – | 825.26 | – | –
303.4 K, m1 = 0.2776 | – | 812.83 | – | –
303.4 K, m1 = 1.492 | – | 932.03 | – | –
303.75 K, m1 = 0.0545 | – | 788.57 | – | –
303.85 K, m1 = 0.881 | – | 868.76 | – | –
304 K, m1 = 0.0082 | – | 782.31 | – | –
304.1 K, m1 = 0.782 | – | 866.62 | – | –
304.2 K, m1 = 0.4555 | – | 829.11 | – | –
304.25 K, m1 = 0.1047 | – | 794.8 | – | –
304.35 K, m1 = 0.0667 | – | 789.8 | – | –
304.65 K, m1 = 0.6276 | – | 846.53 | – | –
304.65 K, m1 = 1.004 | – | 881.56 | – | –
304.8 K, m1 = 1.259 | – | 908.91 | – | –
304.9 K, m1 = 1.71 | – | 949.01 | – | –
304.95 K, m1 = 0.0082 | – | 780.67 | – | –
305.05 K, m1 = 0.4024 | – | 823.53 | – | –
305.15 K, m1 = 0.0667 | – | 789.04 | – | –
305.25 K, m1 = 0.2776 | – | 811.08 | – | –
305.55 K, m1 = 0.0545 | – | 786.97 | – | –
306 K, m1 = 1.875 | – | 958.63 | – | –
306.6 K, m1 = 0.0082 | – | 778.26 | – | –
306.7 K, m1 = 1.492 | – | 929.13 | – | –
306.75 K, m1 = 1.004 | – | 879.67 | – | –
306.8 K, m1 = 0.4024 | – | 821.82 | – | –
306.8 K, m1 = 0.881 | – | 866.06 | – | –
306.85 K, m1 = 0.0667 | – | 787.33 | – | –
306.85 K, m1 = 0.1047 | – | 792.32 | – | –
306.9 K, m1 = 1.259 | – | 907.07 | – | –
306.95 K, m1 = 0.4555 | – | 826.52 | – | –
307.1 K, m1 = 1.71 | – | 947.08 | – | –
307.15 K, m1 = 0.2776 | – | 809.38 | – | –
307.15 K, m1 = 0.782 | – | 863.84 | – | –
307.25 K, m1 = 0.0545 | – | 785.27 | – | –
307.55 K, m1 = 0.6276 | – | 843.81 | – | –
308.15 K, m1 = 0.0082 | 0.1518 | – | 1075.4 | 0.486
308.15 K, m1 = 0.0545 | 0.4242 | – | 1082.1 | 0.5169
308.15 K, m1 = 0.0667 | 0.4649 | – | 1083.3 | 0.5321
308.15 K, m1 = 0.1047 | 0.6114 | – | 1086 | 0.5501
308.15 K, m1 = 0.2776 | 1.172 | – | 1106.2 | 0.6334
308.15 K, m1 = 0.4024 | 1.476 | – | 1116.1 | 0.7332
308.15 K, m1 = 0.4555 | 1.559 | – | 1122.4 | 0.7633
308.15 K, m1 = 0.6276 | 1.867 | – | 1139.5 | 0.9449
308.15 K, m1 = 0.782 | 2.089 | – | 1157.4 | 1.077
308.15 K, m1 = 0.881 | 2.154 | – | 1163.7 | 1.083
308.15 K, m1 = 0.9116 | 2.173 | – | 1165.8 | 1.135
308.15 K, m1 = 1.004 | 2.266 | – | 1180.7 | 1.233
308.15 K, m1 = 1.259 | 2.359 | – | 1200 | 1.694
308.15 K, m1 = 1.492 | 2.396 | – | 1227 | 2.044
308.15 K, m1 = 1.71 | 2.421 | – | 1247.8 | 2.433
308.15 K, m1 = 1.875 | 2.395 | – | 1256.6 | 2.765
308.35 K, m1 = 1.875 | – | 956.57 | – | –
308.55 K, m1 = 0.0667 | – | 785.71 | – | –
308.6 K, m1 = 0.4024 | – | 820.2 | – | –
